Laboratory results taken from article PMC7475166 (Journal of medicinal chemistry, 2015).

Legend:
[1] = target: Bcr-Abl^T315I in Ba/F3 cells (Homo sapiens, UniProt P00519+P11274, T315I); settings: 500 nM, 3 h, immunoblot
[2] = target: Bcr-Abl^WT in Ba/F3 cells (Homo sapiens, UniProt P00519+P11274); settings: 500 nM, 3 h, immunoblot
MUSK = target: T1, MUSK (Homo sapiens, UniProt O15146); assay: SelectScreen Kinase Profiling; format: biochemical
T1 sequence (O15146 24-869): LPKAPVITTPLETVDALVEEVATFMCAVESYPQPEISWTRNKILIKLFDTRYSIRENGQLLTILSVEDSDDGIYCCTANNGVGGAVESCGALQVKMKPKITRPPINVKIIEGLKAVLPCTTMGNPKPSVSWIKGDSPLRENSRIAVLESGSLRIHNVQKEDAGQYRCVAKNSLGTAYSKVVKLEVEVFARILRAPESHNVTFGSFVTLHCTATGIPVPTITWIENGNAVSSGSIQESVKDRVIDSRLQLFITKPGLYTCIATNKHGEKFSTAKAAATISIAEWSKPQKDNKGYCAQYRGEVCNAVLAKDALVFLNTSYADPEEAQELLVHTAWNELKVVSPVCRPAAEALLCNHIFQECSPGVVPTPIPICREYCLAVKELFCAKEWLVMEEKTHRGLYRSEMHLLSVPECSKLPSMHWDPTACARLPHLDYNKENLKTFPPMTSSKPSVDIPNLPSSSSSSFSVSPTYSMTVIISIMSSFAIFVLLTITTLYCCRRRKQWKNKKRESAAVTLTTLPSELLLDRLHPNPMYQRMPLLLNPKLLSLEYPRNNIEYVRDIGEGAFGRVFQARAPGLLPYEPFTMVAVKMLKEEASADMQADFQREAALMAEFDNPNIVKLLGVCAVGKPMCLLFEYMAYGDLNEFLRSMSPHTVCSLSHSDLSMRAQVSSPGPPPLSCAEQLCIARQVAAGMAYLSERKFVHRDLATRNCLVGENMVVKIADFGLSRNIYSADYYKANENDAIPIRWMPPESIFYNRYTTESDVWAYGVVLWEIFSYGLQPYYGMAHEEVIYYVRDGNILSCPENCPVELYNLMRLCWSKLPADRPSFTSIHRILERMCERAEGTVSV

TrkA = TrkA (Homo sapiens, UniProt P04629); assay: SelectScreen Kinase Profiling; format: biochemical
Sequence of TrkA (P04629 33-796): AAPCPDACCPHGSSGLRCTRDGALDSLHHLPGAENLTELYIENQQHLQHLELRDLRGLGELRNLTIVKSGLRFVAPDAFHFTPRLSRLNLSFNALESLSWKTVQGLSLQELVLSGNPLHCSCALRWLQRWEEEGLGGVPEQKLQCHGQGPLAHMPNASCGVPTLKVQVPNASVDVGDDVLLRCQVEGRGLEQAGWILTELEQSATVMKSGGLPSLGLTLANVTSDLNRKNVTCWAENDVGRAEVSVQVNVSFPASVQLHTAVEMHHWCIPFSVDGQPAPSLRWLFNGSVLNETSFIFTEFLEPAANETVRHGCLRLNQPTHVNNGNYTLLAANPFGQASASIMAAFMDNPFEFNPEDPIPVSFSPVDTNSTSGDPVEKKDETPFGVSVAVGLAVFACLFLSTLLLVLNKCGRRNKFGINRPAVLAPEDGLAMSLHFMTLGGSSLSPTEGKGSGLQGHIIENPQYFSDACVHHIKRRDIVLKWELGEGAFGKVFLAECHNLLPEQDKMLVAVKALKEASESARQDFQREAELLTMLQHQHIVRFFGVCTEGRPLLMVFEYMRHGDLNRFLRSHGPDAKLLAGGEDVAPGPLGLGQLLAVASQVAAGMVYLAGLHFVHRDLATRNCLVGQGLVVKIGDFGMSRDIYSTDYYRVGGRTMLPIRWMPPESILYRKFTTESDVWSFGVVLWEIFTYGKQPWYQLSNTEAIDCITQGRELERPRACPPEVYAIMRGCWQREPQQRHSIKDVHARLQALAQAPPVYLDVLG

Yes1 = Yes1 (Homo sapiens, UniProt P07947); assay: SelectScreen Kinase Profiling; format: biochemical; settings: read-out: inhibition of Yes1
Sequence of Yes1 (P07947 whole entry): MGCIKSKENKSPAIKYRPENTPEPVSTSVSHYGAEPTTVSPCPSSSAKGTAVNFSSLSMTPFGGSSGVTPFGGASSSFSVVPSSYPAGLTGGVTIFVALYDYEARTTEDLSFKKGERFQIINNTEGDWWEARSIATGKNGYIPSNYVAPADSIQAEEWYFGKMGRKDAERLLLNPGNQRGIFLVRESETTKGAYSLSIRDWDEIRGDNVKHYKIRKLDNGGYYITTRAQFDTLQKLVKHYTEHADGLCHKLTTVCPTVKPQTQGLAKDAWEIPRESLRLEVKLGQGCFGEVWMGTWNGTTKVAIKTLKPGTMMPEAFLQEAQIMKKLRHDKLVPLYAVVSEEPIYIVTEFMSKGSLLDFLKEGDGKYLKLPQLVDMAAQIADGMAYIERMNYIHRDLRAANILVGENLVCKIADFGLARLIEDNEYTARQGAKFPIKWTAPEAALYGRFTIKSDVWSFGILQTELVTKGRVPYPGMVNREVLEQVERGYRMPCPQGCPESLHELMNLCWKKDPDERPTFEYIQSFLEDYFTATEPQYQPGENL

[3] = system: parental Ba/F3 cells that do not express Bcr-Abl; assay: Counterscreen against parental Ba/F3 cells; format: cell-based
CSF1R = CSF1R (Homo sapiens, UniProt P07333); assay: SelectScreen Kinase Profiling; format: biochemical; settings: read-out: inhibition of CSF1R
Sequence of CSF1R (P07333 20-972): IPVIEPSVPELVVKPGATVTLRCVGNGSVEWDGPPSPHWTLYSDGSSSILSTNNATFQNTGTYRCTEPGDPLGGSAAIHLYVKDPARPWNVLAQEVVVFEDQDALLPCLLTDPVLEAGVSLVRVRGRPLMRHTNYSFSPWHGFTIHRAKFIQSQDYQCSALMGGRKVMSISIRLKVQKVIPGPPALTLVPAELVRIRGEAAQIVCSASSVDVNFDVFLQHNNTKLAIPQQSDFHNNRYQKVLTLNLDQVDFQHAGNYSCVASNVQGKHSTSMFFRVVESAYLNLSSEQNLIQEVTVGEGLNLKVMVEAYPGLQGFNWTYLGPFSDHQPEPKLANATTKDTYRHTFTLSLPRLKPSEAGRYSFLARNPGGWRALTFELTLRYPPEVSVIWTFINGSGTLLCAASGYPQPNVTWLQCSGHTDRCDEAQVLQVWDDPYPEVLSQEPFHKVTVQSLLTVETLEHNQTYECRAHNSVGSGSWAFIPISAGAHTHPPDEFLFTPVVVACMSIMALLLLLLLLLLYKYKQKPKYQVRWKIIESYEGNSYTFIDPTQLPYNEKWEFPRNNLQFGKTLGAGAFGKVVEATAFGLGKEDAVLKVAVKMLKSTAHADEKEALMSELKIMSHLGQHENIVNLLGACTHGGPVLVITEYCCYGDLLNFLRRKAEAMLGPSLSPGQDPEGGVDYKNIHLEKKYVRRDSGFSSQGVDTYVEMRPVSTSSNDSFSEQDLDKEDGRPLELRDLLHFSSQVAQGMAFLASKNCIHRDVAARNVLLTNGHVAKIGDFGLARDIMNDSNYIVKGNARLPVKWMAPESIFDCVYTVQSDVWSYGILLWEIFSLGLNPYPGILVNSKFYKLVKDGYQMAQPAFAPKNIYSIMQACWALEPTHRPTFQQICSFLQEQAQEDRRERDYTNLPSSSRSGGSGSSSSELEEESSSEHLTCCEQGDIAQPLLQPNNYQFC

Blk = Blk (Homo sapiens, UniProt P51451); assay: SelectScreen Kinase Profiling; format: biochemical
Sequence of Blk (P51451 whole entry): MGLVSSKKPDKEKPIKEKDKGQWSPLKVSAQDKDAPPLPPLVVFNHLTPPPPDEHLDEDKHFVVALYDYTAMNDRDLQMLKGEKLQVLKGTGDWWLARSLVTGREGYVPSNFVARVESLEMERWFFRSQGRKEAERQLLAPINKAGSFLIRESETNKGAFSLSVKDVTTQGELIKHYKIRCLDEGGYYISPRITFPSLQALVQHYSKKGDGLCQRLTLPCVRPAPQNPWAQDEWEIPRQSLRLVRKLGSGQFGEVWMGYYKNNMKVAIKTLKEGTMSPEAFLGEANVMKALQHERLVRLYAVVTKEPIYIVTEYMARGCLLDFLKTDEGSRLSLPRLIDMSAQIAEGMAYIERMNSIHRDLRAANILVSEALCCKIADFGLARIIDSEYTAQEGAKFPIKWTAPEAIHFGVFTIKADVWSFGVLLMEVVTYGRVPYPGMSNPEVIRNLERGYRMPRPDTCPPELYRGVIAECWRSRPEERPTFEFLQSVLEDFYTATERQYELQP

[4] = system: diverse set of 66 kinases; assay: SelectScreen Kinase Profiling, whole panel; format: biochemical; settings: 50 nM

Row | phosphorylation of Abl (Tyr412) and STAT5 (Tyr694) [1] | phosphorylation of Abl (Tyr412) and STAT5 (Tyr694) [2] | inhibition of MUSK (MUSK; 50 nM) | inhibition of TrkA (TrkA; 50 nM) | inhibition of Blk (Blk; 50 nM) | number of kinases potently inhibited (>80% inhibition) [4] | SMILES | inhibition at 0.05 µM (Yes1) [%] | window between IC50 values against parental Ba/F3 cells and those expressing Bcr-Abl [3] | inhibition of proliferation of parental Ba/F3 cells ([3]; at concentrations below 1 μM) | inhibition at 0.05 µM (CSF1R) [%] | inhibition at 0.05 µM (MUSK; read-out: inhibition of MUSK) [%] | inhibition at 0.05 µM (TrkA; read-out: inhibition of TrkA) [%] | inhibition at 0.05 µM (Blk; read-out: inhibition of Blk) [%]
1 | only partially inhibited | only partially inhibited |  |  |  |  | CC(C)n1nc(C#Cc2cccc(O)c2)c2c(N)ncnc21 [Compound 3, 3-((4-Amino-1-isopropyl-1H-pyrazolo[3,4-d]pyrimidin-3-yl)-ethynyl)phenol] |  |  |  |  |  |  | 
2 | abolished | abolished | not significantly affected | not significantly affected | not significantly affected | 9 | CC(C)n1nc(C#Cc2cccc(NC(=O)c3cccc(C(F)(F)F)c3)c2)c2c(N)ncnc21 [Compound 15, N-(3-((4-Amino-1-isopropyl-1H-pyrazolo[3,4-d]pyrimidin-3-yl)-ethynyl)phenyl)-3-(trifluoromethyl)benzamide] | 40 to 80 | over 100 fold | do not inhibit | 40 to 80 |  |  | 
3 |  |  |  |  |  |  | Cc1ccc(C(=O)Nc2ccc(CN3CCN(C)CC3)c(C(F)(F)F)c2)cc1C#Cc1cnc2cccnn12 [Ponatinib, reference compound] | > 80 |  |  | > 80 | > 80 | > 80 | > 80
